Laboratory results as given in US9157069B2, “Method of producing pancreatic hormone-producing cells” (Takeda Pharmaceutical Company Limited, priority 2010, dated 2015).
“Also recorded” adds a separate entry of the source.

Columns and labels:
human iPS cells [1] = experiment: Endoderm induction of human iPS cells, SOX17 gene expression by quantitative RT-PCR; format: cell-based; details: GSK3 inhibitor (CHIR99021 3 μM or BIO 0.5 μM) with activin A 100 ng/ml, after 2 days in CHIR99021 3 μM; from day 4 of culture
Procedure: To the human iPS cells sedimented in the centrifuge tube, 0.25% trypsin-1 mM EDTA solution (GIBCO) was added, and allowed to dissociate until they form singulated cells. Then, human iPS cells dispersed in a medium were seeded at a density of 15×10^4 cells per one 100 mm dish coated with BD Matrigel (Nippon Becton Dickinson Company, Ltd.), and cultured at 37° C., 5% CO2 for 1 day. The 100 mm dish used was one coated with BD Matrigel diluted 40-fold with serum-free DMEM/F12 medium (Invitrogen), at room temperature for 3 hr or longer. As a medium for dispersion and seeding was a medium for primate ES cell (ReproCELL Inc.) added with 10 μM Y-27632 (Wako Pure Chemical Industries, Ltd.). […]
To examine variation in the expression of endoderm differentiation markers when human iPS cells were cultured, the cells after differentiation induction were recovered over time, and total RNA fraction was purified using RNeasy96 (Qiagen). cDNA was synthesized using PrimeScriptRT reagent kit (Takara Bio Inc.), quantitative RT-PCR was performed, and the gene expression level of a primitive streak marker Brachyury, and an endoderm marker SOX17 was measured. […]
The level of the gene expression of SOX17 when human iPS cells were cultured was measured over time. […]

human iPS cells [2] = experiment: Differentiation of human iPS cells into pancreatic hormone-producing cells on BD Matrigel or fibronectin substrate, time-course expression of differentiation markers; format: cell-based; details: substrate for endoderm induction, 100 mm dish coating diluted 40-fold
Procedure: First, human iPS cells maintained in the state of a cell mass were dissociated until they formed singulated cells in the same manner as in Example 1. Then, human iPS cells dispersed in a medium were seeded at a density of 60×10^4 cells per one 100 mm dish coated with fibronectin (Invitrogen), and cultured at 37° C., 5% CO2 for 1 day. The 100 mm dish used was one coated with fibronectin diluted 40-fold with serum-free DMEM/F12 medium (Invitrogen), at room temperature for 3 hr or longer. (indicated as “fibronectin” in FIG. 7) Human iPS cells dispersed in a medium were seeded at a density of 15×10^4 cells per one 100 mm dish coated with BD Matrigel (Nippon Becton Dickinson Company, Ltd.), and cultured at 37° C., 5% CO2 for 1 day. The 100 mm dish used was one coated with BD Matrigel diluted 40-fold with serum-free DMEM/F12 medium (Invitrogen), at room temperature for 3 hr or longer. (indicated as “Matrigel” in FIG. 7) As a medium for dispersion and seeding was a medium for primate ES cell (ReproCELL Inc.) added with 10 μM Y-27632 (Wako Pure Chemical Industries, Ltd.). One day after seeding, the medium was exchanged with DMEM/F12 medium containing a GSK3β inhibitor CHIR99021 (3 μM) and 2% B-27 supplement (GIBCO) and cultured for 2 days. Then the medium was exchanged with DMEM/F12 medium containing activin A (50 ng/ml) and CHIR99021 (1 μM) and cultured for 2 days.

| Compound | expression level of SOX17 (relative to GAPDH) (human iPS cells [1]) | time-course variation in the expression of differentiation markers (SOX17, PDX1, NGN3, insulin), compared between substrates (human iPS cells [2]) |
| --- | --- | --- |
| O=C1Nc2cc(Br)ccc2/C1=C1/Nc2ccccc2/C1=N\O [BIO, (2′Z,3′E)-6-bromoindirubin-3′-oxime] | remarkably increased; also recorded: increased over time |  |
| Cc1c[nH]c(-c2cnc(NCCNc3ccc(C#N)cn3)nc2-c2ccc(Cl)cc2Cl)n1 [CHIR99021, 6-[[2-[[4-(2,4-dichlorophenyl)-5-(4-methyl-1H-imidazol-2-yl)-2-pyrimidinyl]amino]ethyl]amino]nicotinonitrile] | remarkably increased; also recorded: increased over time |  |
| fibronectin |  | almost the same |
